# Experimental data from ChEMBL document CHEMBL3352285, “In vitro anti-inflammatory effects of diterpenoids and sesquiterpenoids from traditional Chinese medicine Siegesbeckia pubescens” (Bioorg Med Chem Lett, 2014).
# Experiments:
# [1] = Cytotoxicity against human neutrophils at 10 ug/ml after 15 mins by LDH release assay; format: cell-based; conditions: neutrophil, 0.25 h
# Neutrophil [2] = assay: Inhibition of FMLP/CB-induced elastase release in human neutrophils after 5 mins by spectrophotometry; format: functional, cell-based
# Neutrophil [3] = assay: Inhibition of FMLP/CB-induced superoxide anion generation in human neutrophils at 10 ug/ml by ferricytochrome c reduction method; format: functional
# Neutrophil [4] = assay: Inhibition of FMLP/CB-induced superoxide anion generation in human neutrophils by ferricytochrome c reduction method; format: functional, cell-based
# Neutrophil [5] = assay: Inhibition of FMLP/CB-induced elastase release in human neutrophils at 10 ug/ml after 5 mins by spectrophotometry; format: functional
# RAW264.7 = assay: Inhibition of NO production in LPS/IFN-gamma activated mouse RAW264.7 cells after 24 hrs by Griess assay; format: functional, cell-based
# [6] = Mus musculus, RAW264.7, 24 h, read-out: IC50
IC50 (Neutrophil [2]),IC50 (Neutrophil [4]),IC50 (RAW264.7; raw264.7),IC50 (RAW264.7; [6]),Structure (SMILES),Activity [1],inhibition at 10 µg/mL (Neutrophil [3]),inhibition at 10 µg/mL (Neutrophil [5])
> 10 µg/mL,5.22 µg/mL,–,–,COC(=O)[C@]1(C)CCC[C@@]2(C)[C@@H]3CC[C@@H]4C[C@@]3(CC[C@@H]21)C[C@@H]4CO,Toxic,90.7%,27.7%
> 10 µg/mL,> 10 µg/mL,–,–,CC1(C)[C@H](O)CC[C@@]2(C)[C@@H]3CC[C@](C)(C(O)CO)C=C3CC[C@H]12 (stereo partly drawn),–,35.8%,21.9%
> 10 µg/mL,> 10 µg/mL,–,–,C[C@]1(CO)[C@H]2CCC3=C[C@@](C)(C(O)CO)CC[C@H]3[C@]2(C)CC[C@H]1O (stereo partly drawn),–,17.8%,-0.74%
> 10 µg/mL,> 10 µg/mL,–,–,C[C@@]1(CO)C[C@@H](O)C[C@@]2(C)[C@@H]3CC[C@](C)(C(O)CO)C=C3CC[C@H]12 (stereo partly drawn),–,7.88%,6.78%
> 10 µg/mL,> 10 µg/mL,–,–,C[C@@]1(CO)CC(=O)C[C@@]2(C)[C@@H]3CC[C@](C)(C(O)CO)C=C3CC[C@H]12 (stereo partly drawn),–,10.2%,-0.75%
> 10 µg/mL,> 10 µg/mL,–,–,C[C@@]12C[C@H](O)C[C@@](C)(C(=O)O)[C@H]1CCC1=C[C@@](C)(C(O)CO)CC[C@H]12 (stereo partly drawn),–,5.18%,7.65%
> 10 µg/mL,> 10 µg/mL,–,–,CC1(C)[C@H]2CCC3=C[C@@](C)(C(O)CO)CC[C@H]3[C@]2(C)CC[C@H]1O[C@@H]1O[C@H](CO)[C@@H](O)[C@H](O)[C@H]1O (stereo partly drawn),–,5.86%,5.93%
> 10 µg/mL,> 10 µg/mL,–,–,CC(=O)OCC(O)[C@]1(C)C=C2CC[C@@H]3C(C)(C)[C@H](O[C@@H]4O[C@H](CO)[C@@H](O)[C@H](O)[C@H]4O)CC[C@@]3(C)[C@@H]2CC1 (stereo partly drawn),–,8.87%,4.44%
> 10 µg/mL,> 10 µg/mL,–,–,CC1(C)OCC([C@]2(C)C=C3CC[C@@H]4[C@](C)(CO)C[C@@H](O)C[C@@]4(C)[C@@H]3CC2)O1 (stereo partly drawn),–,38.4%,21.8%
4.73 µg/mL,6.74 µg/mL,–,–,CC(C)C(=O)OC[C@@H]1C[C@@]23CC[C@@H]4[C@](CO)(C(=O)O)CCC[C@@]4(C)[C@@H]2CC[C@H]1C3,Non-toxic,67%,83.2%
3.64 µg/mL,> 10 µg/mL,–,–,CC(=O)OC[C@@]1(C(=O)O)CCC[C@@]2(C)[C@@H]3CC[C@H]4C[C@@]3(CC[C@H]12)C[C@H]4COC(=O)C(C)C,Non-toxic,35.2%,77.8%
> 10 µg/mL,> 10 µg/mL,–,–,CC(=O)OC[C@@]1(C(=O)O)CCC[C@@]2(C)[C@@H]3CC[C@H]4C[C@@]3(CC[C@H]12)C[C@@]4(O)CO,–,32.1%,37%
6.82 µg/mL,> 10 µg/mL,–,–,CC(=O)OC[C@@]1(C(=O)O)CCC[C@@]2(C)[C@@H]3CC[C@H]4C[C@@]3(CC[C@H]12)C[C@@]4(O)COC(=O)C(C)C,Non-toxic,46.7%,60.4%

# Continued, compound first:
Structure (SMILES),IC50 (Neutrophil [2]),IC50 (Neutrophil [4]),IC50 (RAW264.7; raw264.7),IC50 (RAW264.7; [6]),Activity [1],inhibition at 10 µg/mL (Neutrophil [3]),inhibition at 10 µg/mL (Neutrophil [5])
CC1=CC(=O)CC(C)(C)[C@@]1(O)/C=C/C(C)O (stereo partly drawn),> 10 µg/mL,> 10 µg/mL,Not Active,–,–,3.57%,3.42%
CC1(C)C[C@H]2[C@H]1CC[C@@]1(C)C[C@]2(O)CC[C@@H]1O,> 10 µg/mL,> 10 µg/mL,Not Active,–,–,10.2%,5.93%
C=C1C(=O)O[C@@H]2C[C@]3(C)[C@@H](CCC(C)=O)[C@@H]3C[C@H]12,> 10 µg/mL,> 10 µg/mL,–,6.4 µM,–,41.2%,11.2%
C=C1C(=O)O[C@@H]2C[C@]3(C)[C@@H](CCC(C)O)[C@@H]3C[C@H]12 (stereo partly drawn),> 10 µg/mL,> 10 µg/mL,–,18.9 µM,–,11.6%,39%
C=C(C)C(=O)O[C@H]1[C@H]2C(=C)C(=O)O[C@@H]2/C=C(\CO)CC/C=C(/C=O)[C@H]1O,> 10 µg/mL,> 10 µg/mL,Not Active,–,–,9.01%,20.8%
C=C(C)C(=O)O[C@H]1[C@H]2C(=C)C(=O)O[C@@H]2/C=C(\CO)CC/C=C(/C=O)[C@H]1OCC,> 10 µg/mL,6.46 µg/mL,–,6.8 µM,Non-toxic,72.4%,22.3%
C[C@@]12CCC[C@@](C)(C(=O)O)[C@H]1CC[C@]13C[C@H](CO)[C@@H](CC[C@H]12)C3,> 10 µg/mL,3.72 µg/mL,–,–,Non-toxic,89.5%,45.9%
C[C@@]12CCC[C@@](CO)(C(=O)O)[C@H]1CC[C@]13C[C@@H](CO)[C@@H](CC[C@H]12)C3,> 10 µg/mL,> 10 µg/mL,–,–,–,7.81%,15.7%
C[C@@]12CCC[C@@](C)(C(=O)O)[C@H]1CC[C@@]13C[C@H](CC[C@H]12)[C@H](C(=O)O)C3,> 10 µg/mL,5.59 µg/mL,–,–,Non-toxic,69.6%,31.5%
C[C@@]12CCC[C@@](C)(C(=O)O)[C@H]1CC[C@@]13C[C@H](CC[C@H]12)[C@@](O)(CO)C3,4.34 µg/mL,3.63 µg/mL,–,–,Non-toxic,89.2%,70.8%
O=c1cc(N2CCOCC2)oc2c(-c3ccccc3)cccc12 [LY-294002],0.92 µg/mL,0.4 µg/mL,–,–,–,–,–
C=C1C(=O)O[C@H]2C[C@@H](C)[C@@H]3CC[C@H](O)[C@@]3(C)C[C@H]12 [PSEUDOGUAIANOLIDE],> 10 µg/mL,> 10 µg/mL,–,14.9 µM,–,17%,46.9%
